Like-named read-outs stand apart in the source and are kept apart here.
Columns and labels:
[1] = system: U937 cells; assay: Cell viability assay (CELL-TITER-GLO) in U937 cells; format: cell-based; settings: Homo sapiens
[2] = system: HCC1437; assay: Cell profiling, HCC1437 tumor cell line; format: cell-based; settings: Tumor cell line HCC1437, origin Lung
Description: (§1) Cell viability assays were run using standard protocols known to those of skill in art. Cells were plated in 96 well plates at the density of 3,000-10,000 cells per well. Twenty four hours later, cells were treated with increasing concentration of test compounds (1 nM to 1 μM). After another 48 hour, cell survival was measured using CELL-TITER-GLO® reagent (Promega) following the protocol provided by the manufacture. The IC50 value was determined as the concentration of test compound that kills 50% of the cell population.
(§2) The compound of Example 46 was profiled in tumor cell lines derived from a variety of origins.

[3] = system: HT29; assay: Cell profiling, HT29 tumor cell line; format: cell-based; settings: Homo sapiens, HT-29; Tumor cell line HT29, origin Colon
Description: as §1, §2

[4] = system: DU145; assay: Cell profiling, DU145 tumor cell line; format: cell-based; settings: Homo sapiens, DU-145; Tumor cell line DU145, origin Prostate
Description: as §1, §2

[5] = system: LOVO; assay: Cell profiling, LOVO tumor cell line; format: cell-based; settings: Homo sapiens, origin Colon
Description: as §1, §2

[6] = system: COLO205; assay: Cell profiling, COLO205 tumor cell line; format: cell-based; settings: Homo sapiens, COLO 205; Tumor cell line COLO205, origin Colon
Description: as §1, §2

[7] = system: A2058 cells; assay: Cell viability assay (CELL-TITER-GLO) in A2058 cells; format: cell-based; settings: Homo sapiens
[8] = system: BT474; assay: Cell profiling, BT474 tumor cell line; format: cell-based; settings: Homo sapiens, BT-474; Tumor cell line BT474, origin Breast
Description: as §1, §2

[9] = system: OVCAR 3; assay: Cell profiling, OVCAR 3 tumor cell line; format: cell-based; settings: Homo sapiens; Tumor cell line OVCAR 3, origin Ovarian
Description: as §1, §2

[10] = system: BxPC3; assay: Cell profiling, BxPC3 tumor cell line; format: cell-based; settings: Homo sapiens, BXPC-3; Tumor cell line BxPC3, origin Pancreas
Description: as §1, §2

[11] = system: HCC461; assay: Cell profiling, HCC461 tumor cell line; format: cell-based; settings: Tumor cell line HCC461, origin Lung
Description: as §1, §2

[12] = system: HCT116; assay: Cell profiling, HCT116 tumor cell line; format: cell-based; settings: Homo sapiens, HCT-116; Tumor cell line HCT116, origin Colon
Description: as §1, §2

[13] = system: A375; assay: Cell profiling, A375 tumor cell line; format: cell-based; settings: Homo sapiens, A-375; Tumor cell line A375, origin Skin
Description: as §1, §2

[14] = system: NCI-H460; assay: Cell profiling, NCI-H460 tumor cell line; format: cell-based; settings: Homo sapiens; Tumor cell line NCI-H460, origin Lung
Description: as §1, §2

[15] = system: HCT116 human colon carcinoma xenograft; assay: HCT116 human colon carcinoma xenograft model in mice; format: in vivo; settings: 20 mg/kg per dose intravenously, days 9, 11, 14, 16, 18 and 21 post tumor cell injection
Description: Compound of Example 73 was administered at 20 mg/kg per dose. Injections were given at days 9, 11, 14, 16, 18 and 21 post tumor cell injection.
The compound of Example 73 was tested in HCT116 human colon carcinoma xenograft and Miapaca pancreatic cancer xenograft tumor models in 5- to 6-week-old Harlan Athymic Nude-Foxnlnu mice.
Preparation of Tumor Cells • 1. Tumor cells were cultured in complete RPMI medium and excluded any contamination • 2. When cells are 70-80% confluent, medium was removed and cells were washed with serum free media, trypsinized, harvested and washed with serum free media for three times by centrifuge. After final washing, cells were counted and mixed with matrigel at 1:1 ration in volume. Cells were suspended in a volume that 200 μl contains required number of cells per injection.
Preparation of the Injection • 1. Clean and sterilize the inoculation area of the mice with iodine solutions and ethanol. • 2. Take cells with 1-cc syringe. • 3. Inject tumor cells (1×10^7) subcutaneously (s.c.) into the lower flank of the mice. • 4. When tumors reached 200-300 mm^3 in size, mice were randomized into treatment groups of five mice per group. • 5. Mice were weighed and tumors measured using vernier calipers two times per week. Tumor volume in mm3 is calculated by the formula: Volume (mm^3)=(length×width^2)/2. […]

[16] = U-937, 48 h, U937 cells, 48 hour treatment, cell viability, read-out: IC50 (μM) U937
[17] = A2058, 48 h, A2058 cells, 48 hour treatment, cell viability, read-out: IC50 (μM) A2058
[18] = U-937, U937 cells, 48 hour treatment, cell viability, read-out: IC50 (μM) U937
[19] = A2058 cells, 48 hour treatment, cell viability, read-out: IC50 (μM) A2058

Row | SMILES | IC50 [1, 16] [µM] | IC50 [7, 17] [µM] | further results
1 | COC(=O)c1coc(-c2nc3oc2C24c5ccccc5N[C@H]2Oc2ccc(cc24)C[C@H](NC(=O)[C@@H](O)C(C)C)C(=O)N[C@H]3C(C)C)n1 (some centres unmarked) [Example 46] | 0.013 | 0.044 | IC50 ([1]; U-937, Tumor cell line U937, origin Blood, read-out: IC50): 0.013 µM; IC50 [2]: 63 nM; IC50 [3]: 90 nM; IC50 [4]: 67 nM; IC50 [5]: 148 nM; IC50 [6]: 147 nM; IC50 ([7]; A2058, Tumor cell line A2058, origin Skin, read-out: IC50): 0.044 µM; IC50 [8]: 6 nM; IC50 [9]: 32 nM; IC50 [10]: 23 nM; IC50 [11]: 344 nM; IC50 [12]: 731 nM; IC50 [13]: 99 nM; IC50 [14]: 245 nM
2 | CC(C)[C@H](O)C(=O)N[C@H]1Cc2ccc3c(c2)C2(C4=C(c5nc(CO)co5)N=C(O4)[C@H](C(C)C)NC1=O)c1ccccc1N[C@H]2O3 (some centres unmarked) [Example 73] | 0.037 | 0.093 | maximum weight loss [15]: 7.9%; tumor size for treated animals, % of control ([15]; day 25): 34.5 % of control
3 | CC(C)[C@H](O)C(=O)N[C@H]1Cc2ccc3c(c2)C2(C4=C(c5cnco5)N=C(O4)[C@H](C(C)C)NC1=O)c1ccccc1N[C@H]2O3 (some centres unmarked) [Example 83] | 0.252 | 0.433 | 
4 | CCC(O)(CC)C(=O)N[C@H]1Cc2ccc3c(c2)C2(C4=C(c5cnco5)N=C(O4)[C@H](C(C)C)NC1=O)c1ccccc1N[C@H]2O3 (some centres unmarked) [Example 84] | 0.315 | 0.487 | 
5 | CC(C)[C@H](O)C(=O)N[C@H]1Cc2ccc3c(c2)C2(C4=C(c5ncc[nH]5)N=C(O4)[C@H](C(C)C)NC1=O)c1ccccc1N[C@H]2O3 (some centres unmarked) [Example 85] | 0.234 | 0.337 | 
6 | CC(C)[C@H](O)C(=O)N[C@H]1Cc2ccc3c(c2)C2(C4=C(c5nc(C#N)c(N)o5)N=C(O4)[C@H](C(C)C)NC1=O)c1ccccc1N[C@H]2O3 (some centres unmarked) [Example 86] | 0.064 | 0.179 | 
7 | Cc1noc(-c2nc3oc2C24c5ccccc5N[C@H]2Oc2ccc(cc24)C[C@H](NC(=O)[C@@H](O)C(C)C)C(=O)N[C@H]3C(C)C)n1 (some centres unmarked) [Example 87] | 0.164 | 0.479 | 
8 | CCOC(=O)c1noc(-c2nc3oc2C24c5ccccc5N[C@H]2Oc2ccc(cc24)C[C@H](NC(=O)[C@@H](O)C(C)C)C(=O)N[C@H]3C(C)C)n1 (some centres unmarked) [Example 88] | 0.7 | > 1 | 
9 | COC(=O)c1nc([C@@H](NC(=O)[C@H](Cc2ccc(O)cc2)NC(=O)[C@@H](O)C(C)C)C(C)C)oc1-c1c[nH]c2ccccc12 [Example 89] |  |  | IC50 [1, 18]: > 1 µM; IC50 [7, 19]: > 1 µM
10 | CC(C)[C@H](O)C(=O)N[C@H]1Cc2ccc3c(c2)C2(C4=C(c5ncc(-c6c[nH]c7c(O)cccc67)o5)N=C(O4)[C@H](C(C)C)NC1=O)c1ccccc1N[C@H]2O3 (some centres unmarked) [Example 90] | > 1 | 0.994 | 
11 | CC(C)[C@H](O)C(=O)N[C@H]1Cc2ccc3c(c2)C2(C4=C(c5ncc(-c6c[nH]c7ccccc67)o5)N=C(O4)[C@H](C(C)C)NC1=O)c1ccccc1N[C@H]2O3 (some centres unmarked) [Example 91] | 0.579 | 0.475 | 
12 | COC(=O)c1nc2oc1[C@@]13c4cc(Cl)ccc4NC1Oc1ccc(cc13)C[C@H](NC(=O)[C@@H](O)C(C)C)C(=O)N[C@H]2C(C)C (some centres unmarked) [Example 93] | > 1 | > 1 | 
13 | COC(=O)c1nc([C@@H](NC(=O)[C@H](Cc2ccccc2)NC(=O)[C@@H](O)C(C)C)C(C)C)oc1-c1c[nH]c2ccccc12 [Example 94] |  |  | IC50 [1, 18]: > 1 µM; IC50 [7, 19]: > 1 µM
14 | COc1ccc(-c2cnc(-c3nc4oc3[C@@]35c6ccccc6NC3Oc3ccc(cc35)C[C@H](NC(=O)[C@@H](O)C(C)C)C(=O)NC4C(C)C)o2)cc1 (some centres unmarked) [Example 95] | > 1 | > 1 | 

From patent US7989482B2, “Indoline anti-cancer agents” (Joyant Pharmaceuticals, Inc., priority 2008, dated 2011)
